Entries after “also recorded” stand apart in the source; their conditions may differ.

The values that follow come from patent US20050043178A1, “Herbicidal and bacteriostatic compounds from centaurea maculosa” (Colorado State University Research Foundation, priority 2001, published 2005).

In test [1] the test system is Arabidopsis thaliana shoot cultures. Put plainly: Phytotoxicity (MIC, shoot and root differentiation) on Arabidopsis thaliana in MS basal medium. The class given is in vivo. The settings on record: for minimum inhibitory concentration (MIC): Arabidopsis thaliana shoot cultures in vitro. On the procedure:
(§1) Catechin and 2, 4-D were administered in MS basal medium at different concentration range (1-200 μg ml^−1) to check for the minimum inhibitory concentration (MIC). i) 10 μg ml^−1; ii) 60 μg ml^−1; iii) 100 μg ml^−1. • B) Effect of catechin on shoot and root differentiation in A. thaliana plants on the 14th day. Catechin was compared for phytoxicity against 2, 4-D and was administered at 100 μg ml^−1 concentration in MS basal medium (5 ml). Treatments were as follows: 1) Untreated control; 2) (+)-catechin; 3) (−)-catechin; 4) (±)-catechin; 5) (+/−) co-administered catechin; 6) (±) catechin isolated from root exudates of C. maculosa; 7) 2, 4-D. [Means of different letters at the top of each bar indicate significant difference (p<0.05) (SEM±52df)]. • C) Antibacterial activity of (+)-catechin on different bacterial strains. i) Tube antibacterial assay. 1) Control (without (+)-catechin); 2) (+)-catechin 100 μg ml^−1; 3) (+)-catechin 150 μg ml^−1; 4) (+)-catechin 200 μg ml^−1. Bacterial cultures were grown overnight at 24° C. in liquid LB media to an optical density of 0.2 at 600 nm. Different concentrations (100-200 μg ml^−1) of (+)-catechin were administered to the bacteria-containing LB media. Optical density at 600 nm was checked after 24 hrs of incubation to measure bacterial inhibition in tubes. Antibacterial activity was assayed on both tubes and 35 mm plates. ii) Antibacterial activity of (+)-catechin on Pseudomonas fluorescens analyzed in a petri dish assay. Treatments on petri dish refers to the following concentrations: 1) Methanol ((+)-catechin solvent) was used as a control; II) (−)-catechin (100 μg ml^−1); III) (+)-catechin (100 μg/ml); IV) (±)-catechin (200 μg ml^−1); V) (±)-catechin (200 μg ml^−1) isolated from root exudates of C. maculosa.
Root exudates of in vitro-grown C. maculosa plants were assayed for their effects on the phenotypic response and germnination efficiency of various weeds, including Linaria dalmatica (Dalmatian toadflax), Verbascum thapsus (common mullein), Bromos tectorum (downy brome), Kochia scoparia (kochia), Centaurea diffusa (diffuse knapweed), the model plant Arabidopsis thaliana and crops such as wheat (Triticum aestivum) and tomato (Lycopersicon esculentum). Ten day old seedlings and seeds of C. maculosa, L. dalmatica, V. thapsus, B. tectorum, K. scoparia, C. diffusa, A. thaliana, T. aestivum and L. esculetum were placed on MS basal medium in petri dishes after initial surface sterilization. Petri dishes were kept under a 16 hour light and 8 hour dark photoperiod in an incubator (Lab-Line). An additional objective was to check the effect of allelochemicals from C. maculosa on growth and differentiation of food crops such as Triticum aestivum (Wheat) and Lycopersicon esculetum (Tomato). This was of interest as wheat is known to produce an allelopathic effect in its root exudates (H. Wu, T. Haig, J. Prateley, D. Lemerle, M. An, J. Food Agric Chem. 48, 5321 (2000)). Root exudates collected from non-elicited and elicited cultures of C. maculosa were administered in different concentrations (1-3 ml v/v) over the surface sterilized seeds and seedlings to analyze their phytotoxic effects. […] After incubation, growth parameters such as length of shoots, number of shoots and length of primary root of the treated and untreated plants were measured. […]

The test system of test [2] is C. maculosa. Nature of the test: Effect on C. maculosa itself (autotoxicity). It counts as in vivo, Centaurea maculosa. Particulars: FIG. 1(b and c). On the procedure:
(§2) Root exudates collected from non-elicited cultures of C. maculosa were administered in different concentrations (1-3 ml v/v) in the MS basal liquid media containing different seedlings to analyze phenotypic explant response. ii) Effect of fungal cell wall (CWE) elicited root exudates of C. maculosa on shoots and root differentiation of different weeds and crop plants on 14th day. Fungal cell wall extracts (CWE) from Phytophthora cinnamoni and Rhizoctonia solani were used. Data represents the percent inhibition as compared to the untreated control in shooting and rooting response in various tested seedlings against non-elicited and elicited root exudates of C. maculosa. The seedlings tested against C. maculosa exudates were as follows:1: C. maculosa; 2: L. dalmatica; 3: V. thapsus; 4: B. tectorum, 5: K. scoparia; 6: C. diffusa; 7: A. thaliana 8: T. aestivum; 9: L. esculentum. [Means of different letters at the top of each bar indicate significant difference (p<0.05) (SEM±52df)]. • B) Effect of purified HPLC-fraction from C. maculosa root exudates on morphological differentiation of various weeds and food crops. HPLC peaks were collected and administered into 5 ml MS basal medium at 100 μg ml^−1 concentration; fractions were added in different permutations. i) C. maculosa; ii) C. diffusa; iii) K scoparia; iv) L. dalmatica; v) A.thaliana; vi) T. aestivum. […]

For test [3], the system named is Agrobacterium rhizogenes (15834). Nature of the test: Tube antibacterial assay (OD 600 nm after 24 hrs). It counts as cell-based. Particulars: even at higher concentrations. On the procedure: as §1
(§3) Antibacterial plate assay was performed on a bacterial culture grown overnight; both the enantiomers and the racemic catechin were added to the paper discs and allowed to dry under laminar hood conditions. […] Visual observations for inhibition zone were recorded after 24 hrs. […]

The test system of test [4] is Erwinia carotovora. Nature of the test: Tube antibacterial assay (OD 600 nm after 24 hrs). The class given is cell-based. Particulars: 100-200 μg/ml. On the procedure:
as §1, §3

Test [5] concerns Xanthomonas campestris. Nature of the test: Tube antibacterial assay (OD 600 nm after 24 hrs). It counts as cell-based. The settings on record: 100-200 μg/ml. On the procedure:
as §1, §3

For test [6], the system named is Pseudomonas fluorescens. Put plainly: Tube and plate antibacterial assay. The class given is cell-based. Particulars: 100-200 μg/ml, 24 hrs. On the procedure: Catechin and 2, 4-D were administered in MS basal medium at different concentration range (1-200 μg ml^−1) to check for the minimum inhibitory concentration (MIC). i) 10 μg ml^−1; ii) 60 μg ml^−1; iii) 100 μg ml^−1. • B) Effect of catechin on shoot and root differentiation in A. thaliana plants on the 14th day. Catechin was compared for phytoxicity against 2, 4-D and was administered at 100 μg ml^−1 concentration in MS basal medium (5 ml). Treatments were as follows: 1) Untreated control; 2) (+)-catechin; 3) (−)-catechin; 4) (±)-catechin; 5) (+/−) co-administered catechin; 6) (±) catechin isolated from root exudates of C. maculosa; 7) 2, 4-D. [Means of different letters at the top of each bar indicate significant difference (p<0.05) (SEM±52df)]. • C) Antibacterial activity of (+)-catechin on different bacterial strains. i) Tube antibacterial assay. […] Antibacterial activity was assayed on both tubes and 35 mm plates. ii) Antibacterial activity of (+)-catechin on Pseudomonas fluorescens analyzed in a petri dish assay. […]
as §3

Test [7] concerns soil borne bacteria. Put plainly: Antibacterial assay on soil borne bacteria (six strains). The class given is cell-based. Particulars: six bacterial strains / soil-borne pathogens tested. On the procedure: as §1, §3
The test system of test [8] is various weeds and crop plants. Put plainly: Phytotoxic effect on seedlings of weeds and crop plants. The class given is in vivo. The settings on record: incl. C. diffusa. On the procedure: as §2

Regarding `Oc1cc(O)c2c(c1)OC(c1ccc(O)c(O)c1)C(O)C2` (racemic) [(±)-catechin], the “minimum inhibitory concentration (MIC)” value in test [1] is “about 100 μg/ml”. Besides, the “effect compared with root exudated (±)-catechin” value in test [1] (commercially available racemate, FIG. 2(a and b)) is listed as “same effect as root exudated (±)-catechin”. Besides, the “resistance of C. maculosa” value in test [2] is recorded as “strongly resistant”.
Regarding `O=C(O)COc1ccc(Cl)cc1Cl` [2,4-D, 2,4-dichlorophenoxyacetic acid, reference compound], in test [1], the “minimum inhibitory concentration (MIC)” value came to 10 µg/mL.
As to `Oc1cc(O)c2c(c1)O[C@H](c1ccc(O)c(O)c1)[C@@H](O)C2` [(+)-catechin], the “allelochemical activity / phytotoxicity” value in test [1] (A. thaliana, FIGS. 2 a, b) is reported as “not phytotoxic; also recorded: did not show allelochemical activity”. Moreover, in test [3], the inhibition of growth entry was “not affected”. The “inhibition of growth (decrease in optical density)” value in test [4], in test [5] and in test [6] was “distinct inhibition of growth” each time. Moreover, the antibacterial activity entry in test [7] was “antibacterial activity against root infesting pathogens; also recorded: most showed a degree of inhibition”.
With (−)-catechin [(−)catechin], the “doses accounting for the allelochemical activity (as low as)” value in test [1] (A. thaliana, FIGS. 2 a, b) is 50 to 60 µg/mL. Also, the “spectrum of phytotoxicity / allelochemical activity” value in test [8] is “broad-spectrum phytotoxicity”. For the same molecule, the figures for the antibacterial activity result in test [7] and in test [7] (listed as (−)-catechin) were “failed to show any antibacterial activity” and “does not show”, respectively.
